In patent publication US11712438B2, “Phenyl derivatives as PGE2 receptor modulators” (IDORSIA PHARMACEUTICALS LTD, priority 2017, dated 2023) one finds IC50 data, which are given here for 24 molecules.

Some targets named below: PTRGER4 (EP4) (Homo sapiens, UniProt P35408); EP4 (Homo sapiens, UniProt P35408); PTGER2 (EP2) (Homo sapiens, UniProt P43116); EP2 (Homo sapiens, UniProt P43116).
What all share (assay): cell-based

Chain of PTRGER4 (EP4) (P35408 whole entry): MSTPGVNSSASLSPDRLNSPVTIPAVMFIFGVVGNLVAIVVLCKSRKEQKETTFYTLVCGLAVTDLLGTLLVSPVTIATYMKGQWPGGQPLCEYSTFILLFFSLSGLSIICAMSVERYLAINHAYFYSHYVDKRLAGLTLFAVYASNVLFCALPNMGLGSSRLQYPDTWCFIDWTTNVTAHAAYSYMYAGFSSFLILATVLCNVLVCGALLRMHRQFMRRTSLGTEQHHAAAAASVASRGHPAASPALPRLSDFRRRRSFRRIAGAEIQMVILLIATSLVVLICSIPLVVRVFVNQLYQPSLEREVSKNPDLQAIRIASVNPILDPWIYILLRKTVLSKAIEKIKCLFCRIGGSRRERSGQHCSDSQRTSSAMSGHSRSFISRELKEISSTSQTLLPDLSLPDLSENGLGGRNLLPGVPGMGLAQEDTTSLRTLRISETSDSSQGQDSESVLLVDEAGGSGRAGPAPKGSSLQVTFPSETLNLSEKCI
Chain of EP4 (P35408 whole entry): as above
Chain of PTGER2 (EP2) (P43116 whole entry): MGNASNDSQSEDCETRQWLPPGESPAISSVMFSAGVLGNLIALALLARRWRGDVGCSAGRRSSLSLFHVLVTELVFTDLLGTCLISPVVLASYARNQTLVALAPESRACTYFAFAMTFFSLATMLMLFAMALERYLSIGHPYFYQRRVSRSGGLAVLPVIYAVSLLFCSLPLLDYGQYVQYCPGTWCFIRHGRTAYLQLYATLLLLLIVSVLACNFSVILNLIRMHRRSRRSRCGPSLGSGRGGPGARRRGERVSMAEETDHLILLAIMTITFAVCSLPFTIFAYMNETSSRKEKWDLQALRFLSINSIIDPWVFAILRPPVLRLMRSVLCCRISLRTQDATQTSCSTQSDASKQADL
Chain of EP2 (P43116 whole entry): as above
Source text for PTRGER4 (EP4): The assay is using the PathHunter™ HEK 293 PTGER2 and PTGER4 b-arrestin cell lines from DiscoverX. The system is based on the Enzyme Fragment Complementation Technology. Two complementing fragments of the b-galactosidase enzyme are expressed within stably transfected cells. The larger portion of b-gal, termed EA for Enzyme Acceptor, is fused to the C-terminus of b-arrestin 2. The smaller fragment, termed ProLink™ tag, is fused to PTGER2 (EP2) or PTRGER4 (EP4) at the C-terminus. Upon activation, b-arrestin is recruited which forces the interaction of ProLink and EA, allowing complementation of the two fragments of b-gal and the formation of a functional enzyme which is capable of hydrolysing the substrate and generating a chemiluminescent signal.
The HEK 293 PTGER4 b-arrestin cells (DiscoverX 93-030-4C1) are detached from culture dishes with a cell dissociation buffer (Invitrogen, 13151-014), and collected in growing medium (GM: DMEM+Glutamax-I (Invitrogen 32430)/10% FCS, 1% Penicilin/streptomycin). 5000 cells per well of a 384 well plate (white with white bottom Greiner 781080) are seeded in 20 ul per well of GM. Plate is incubated at 37° C., 5% CO2 for 24 hours.
Stock solutions of test compounds are made at a concentration of 10 mM in DMSO, and serially diluted in DMSO to concentrations required for inhibition dose response curves (tested concentration range 10 μM-2 nM or 1 μM-0.2 nM).
PGE2 (Cayman 14010, stock solution: 100 uM in DMSO) is used as agonist at 20 nM final concentration, corresponding to EC80.
Five microliters of diluted compounds are transferred into the assay plate. Plate is pre-incubated 15 minutes at 37° C. Then five microliters of PGE2 (final conc. 20 nM) are transferred into the assay plate. Plate is incubated 120 minutes at 37° C.
Twelve μl of reagent are transferred to the assay plate and incubate for 1 hour at room temperature in the dark. Luminescence counts are read on a BMG Fluostar Optima reader according to manufacturers instructions.
For each compound concentration calculate of the percentage of activity compared to DMSO control value as average±STDEV. (each concentration is measured in duplicate)
When compounds were measured multiple times, mean values are given.

A word on the IC50: it is the concentration needed to halve the response being measured. A higher IC50 goes with a need for much substance. On to `CCc1cc(-c2cc(NCCc3c(F)cccc3F)ncn2)sc1C(=O)O` [Example 53, 5-{6-[2-(2,6-Difluoro-phenyl)-ethylamino]-pyrimidin-4-yl}-3-ethyl-thiophene-2-carboxylic acid], for which the IC50 against PTRGER4 (EP4) came to 472 nM; on EP4, 221 nM; at PTGER2 (EP2), 437 nM; against EP2 it was 63 nM.

As to `O=c1[nH]c(-c2ccc(-c3cc(NCCc4c(F)cc(Br)cc4F)ncn3)s2)no1` [Example 135, 3-(5-{6-[2-(4-Bromo-2,6-difluoro-phenyl)-ethylamino]-pyrimidin-4-yl}-thiophen-2-yl)-[1,2,4]oxadiazol-5(4H)-one], the IC50 against PTRGER4 (EP4) worked out at 8 nM; at EP4, 34 nM; against PTGER2 (EP2), 26 nM; against EP2, 15 nM.

For `CNc1cc(-c2cc(NCCc3c(F)cc(Br)cc3F)ncn2)ccc1C(N)=O` [Example 216, 4-{6-[2-(4-Bromo-2,6-difluoro-phenyl)-ethylamino]-pyrimidin-4-yl}-2-methylamino-benzamide], the IC50 was determined as 17 nM on PTRGER4 (EP4), 67 nM against EP4, 21 nM at PTGER2 (EP2) and 23 nM on EP2.

Regarding `CCCc1cc(-c2cc(NCCc3c(F)cc(Br)cc3F)ncn2)ccc1C(=O)O` [Example 35, 4-{6-[2-(4-Bromo-2,6-difluoro-phenyl)-ethylamino]-pyrimidin-4-yl}-2-propyl-benzoic acid], the IC50 came out at 242 nM at PTRGER4 (EP4), 433 nM against EP4, 109 nM against PTGER2 (EP2) and 86 nM at EP2.

Turning to `CCCOc1cc(-c2cc(NCCc3c(F)cc(Br)cc3F)ncn2)ccc1CC(=O)O` [Example 248, (4-{6-[2-(4-Bromo-2,6-difluoro-phenyl)-ethylamino]-pyrimidin-4-yl}-2-propoxy-phenyl)-acetic acid], the IC50 against PTRGER4 (EP4) is 311 nM; against EP4, 299 nM; against PTGER2 (EP2), 226 nM; at EP2, 635 nM.

As for `CCOc1ccccc1CCNc1cc(-c2cc(OCC)c(-c3noc(=O)[nH]3)s2)ncn1` [Example 102, 3-(3-Ethoxy-5-{6-[2-(2-ethoxy-phenyl)-ethylamino]-pyrimidin-4-yl}-thiophen-2-yl)-[1,2,4]oxadiazol-5(4H)-one], the IC50 against PTRGER4 (EP4) is 91 nM; at EP4, 122 nM; at PTGER2 (EP2) it was 34 nM; at EP2, 17 nM.

For `CCOc1cc(-c2cc(NCCc3ccc(Br)c(C)c3)ncn2)sc1-c1noc(=O)[nH]1` [Example 113, 3-(5-{6-[2-(4-Bromo-3-methyl-phenyl)-ethylamino]-pyrimidin-4-yl}-3-ethoxy-thiophen-2-yl)-[1,2,4]oxadiazol-5(4H)-one], the IC50 was determined as 3 nM against PTRGER4 (EP4), 29 nM on EP4, 47 nM on PTGER2 (EP2) and 113 nM at EP2.

Turning to `CCOc1cc(-c2cc(NCCc3c(F)cc(Br)cc3F)ncn2)[nH]c1C(=O)O` [Example 268, 5-{6-[2-(4-Bromo-2,6-difluoro-phenyl)-ethylamino]-pyrimidin-4-yl}-3-ethoxy-1H-pyrrole-2-carboxylic acid], the IC50 against PTRGER4 (EP4) turned out to be 294 nM; against EP4, 225 nM; against PTGER2 (EP2), 19 nM; on EP2, 21 nM.

Take `CCCOc1cc(Br)ccc1CCNc1cc(-c2cc(OCC)c(-c3noc(=O)[nH]3)s2)ncn1` [Example 89, 3-(5-{6-[2-(4-Bromo-2-propoxy-phenyl)-ethylamino]-pyrimidin-4-yl}-3-ethoxy-thiophen-2yl)-[1,2,4]oxadiazol-5(4H)-one]: the IC50 came to 3 nM against PTRGER4 (EP4), 58 nM on EP4, 17 nM at PTGER2 (EP2) and 10 nM against EP2.

As to `CCOc1cc(-c2cc(NCCc3ccc(Br)c(F)c3)ncn2)sc1-c1noc(=O)[nH]1` [Example 108, 3-(5-{6-[2-(4-Bromo-3-fluoro-phenyl)-ethylamino]-pyrimidin-4-yl}-3-ethoxy-thiophen-2-yl)-[1,2,4]oxadiazol-5(4H)-one], the IC50 against PTRGER4 (EP4) turned out to be 5 nM; at EP4, 15 nM; at PTGER2 (EP2), 28 nM; against EP2, 113 nM.

Consider `CCOc1cc(-c2cc(NCCc3cc(F)c(C(F)F)cc3OC)ncn2)sc1C(=O)O` [Example 185, 5-{6-[2-(4-Difluoromethyl-5-fluoro-2-methoxy-phenyl)-ethylamino]-pyrimidin-4-yl}-3-ethoxy-thiophene-2-carboxylic acid], for which the IC50 worked out at 8 nM against PTRGER4 (EP4), 6 nM against EP4, 51 nM at PTGER2 (EP2) and 41 nM on EP2.

Take `CCOc1cc(-c2cc(NCCc3ccc(Cl)cc3Cl)ncn2)sc1-c1noc(=O)[nH]1` [Example 123, 3-(5-{6-[2-(2,4-Dichloro-phenyl)-ethylamino]-pyrimidin-4-yl}-3-ethoxy-thiophen-2-yl)-[1,2,4]oxadiazol-5(4H)-one]: the IC50 against PTRGER4 (EP4) was 27 nM; at EP4, 19 nM; on PTGER2 (EP2), 29 nM; against EP2 it was 32 nM.

On to `CCOc1cc(C(F)(F)F)ccc1CCNc1cc(-c2ccc(C(=O)O)c(SC)c2)ncn1` [Example 212, 4-{6-[2-(2-Ethoxy-4-trifluoromethyl-phenyl)-ethylamino]-pyrimidin-4-yl}-2-methylsulfanyl-benzoic acid], for which the IC50 amounted to 50 nM against PTRGER4 (EP4), 93 nM against EP4, 26 nM against PTGER2 (EP2) and 62 nM at EP2.

Turning to `CCCOc1cc(-c2cc(NCCc3c(F)cc(Br)cc3F)ncn2)ccc1C(=O)O` [Example 36, 4-{6-[2-(4-Bromo-2,6-difluoro-phenyl)-ethylamino]-pyrimidin-4-yl}-2-propoxy-benzoic acid], the IC50 at PTRGER4 (EP4) was 684 nM; against EP4, 951 nM; against PTGER2 (EP2) it was 70 nM; against EP2, 91 nM.

Turning to `CSc1cc(-c2cc(NCCc3ccc(C)c(C)c3)ncn2)ccc1C(=O)O` [Example 18, 4-{6-[2-(3,4-Dimethyl-phenyl)-ethylamino]-pyrimidin-4-yl}-2-methylsulfanyl-benzoic acid], the IC50 against PTRGER4 (EP4) was found to be 168 nM; against EP4, 173 nM; on PTGER2 (EP2), 481 nM; against EP2, 130 nM.

On to `CCOc1cc(-c2cc(NCCc3c(F)cc(Br)cc3F)ncn2)sc1C(=O)NS(C)(=O)=O` [Example 154, N-(5-{6-[2-(4-Bromo-2,6-difluoro-phenyl)-ethylamino]-pyrimidin-4-yl}-3-ethoxy-thiophene-2-carbonyl)-methanesulfonamide], for which the IC50 was determined as 33 nM at PTRGER4 (EP4), 66 nM at EP4, 13 nM at PTGER2 (EP2) and 8 nM on EP2.

In the case of `CCOc1cc(-c2cc(NCCc3ccc(OC)cc3OC)ncn2)sc1C(=O)O` [Example 73, 5-{6-[2-(2,4-Dimethoxy-phenyl)-ethylamino]-pyrimidin-4-yl}-3-ethoxy-thiophene-2-carboxylic acid], the IC50 amounted to 136 nM against PTRGER4 (EP4), 35 nM against EP4, 54 nM against PTGER2 (EP2) and 30 nM against EP2.

Turning to `O=c1[nH]c(-c2sc(-c3cc(NCCc4c(F)cc(Br)cc4F)ncn3)cc2C(F)(F)F)no1` [Example 133, 3-(5-{6-[2-(4-Bromo-2,6-difluoro-phenyl)-ethylamino]-pyrimidin-4-yl}-3-trifluoromethyl-thiophen-2-yl)-[1,2,4]oxadiazol-5(4H)-one], the IC50 against PTRGER4 (EP4) amounted to 13 nM; on EP4, 44 nM; against PTGER2 (EP2), 13 nM; against EP2, 92 nM.

For the molecule `CCOc1cc(-c2cc(NCCc3c(F)cccc3F)ncn2)sc1-c1noc(=O)[nH]1` [Example 103, 3-(5-{6-[2-(2,6-Difluoro-phenyl)-ethylamino]-pyrimidin-4-yl}-3-ethoxy-thiophen-2-yl)-[1,2,4]oxadiazol-5(4H)-one], the IC50 was determined as 36 nM against PTRGER4 (EP4), 39 nM against EP4, 62 nM against PTGER2 (EP2) and 39 nM on EP2.

As for `CCOc1cc(-c2cc(NCCc3ccc(Br)cc3)ncn2)sc1C(=O)O` [Example 54, 5-{6-[2-(4-Bromo-phenyl)-ethylamino]-pyrimidin-4-yl}-3-ethoxy-thiophene-2-carboxylic acid], the IC50 on PTRGER4 (EP4) was determined as 17 nM; against EP4, 10 nM; at PTGER2 (EP2), 60 nM; on EP2, 31 nM.

As for `CCOc1cc(-c2cc(NCCc3ccc(Br)cc3)ncn2)sc1-c1nnn[nH]1` [Example 131, [2-(4-Bromo-phenyl)-ethyl]-{6-[4-ethoxy-5-(1H-tetrazol-5-yl)-thiophen-2-yl]-pyrimidin-4-yl}-amine], the IC50 was 3 nM against PTRGER4 (EP4), 11 nM at EP4, 18 nM against PTGER2 (EP2) and 54 nM on EP2.

In the case of `CNc1cc(-c2cc(NCCc3c(F)cc(Br)cc3F)ncn2)ccc1-c1noc(=O)[nH]1` [Example 296, 3-(4-{6-[2-(4-Bromo-2,6-difluoro-phenyl)-ethylamino]-pyrimidin-4-yl}-2-methylamino-phenyl)-[1,2,4]oxadiazol-5(4H)-one], the IC50 against PTRGER4 (EP4) worked out at 9 nM; against EP4, 14 nM; against PTGER2 (EP2), 12 nM; at EP2 it was 44 nM.

Regarding `CCOc1cc(-c2cc(NCCc3ccc(OC(F)(F)F)cc3OC)ncn2)sc1C(=O)O` [Example 210, 3-Ethoxy-5-{6-[2-(2-methoxy-4-trifluoromethoxy-phenyl)-ethylamino]-pyrimidin-4-yl}-thiophene-2-carboxylic acid], the IC50 against PTRGER4 (EP4) turned out to be 20 nM; at EP4 it was 21 nM; against PTGER2 (EP2), 294 nM; on EP2 it was 615 nM.

As for `O=C(O)c1ccc(-c2cc(NCCc3c(F)cc(Br)cc3F)ncn2)s1` [Example 26, 5-{6-[2-(4-Bromo-2,6-difluoro-phenyl)-ethylamino]-pyrimidin-4-yl}-thiophene-2-carboxylic acid], the IC50 at PTRGER4 (EP4) was found to be 104 nM; on EP4 it was 115 nM; on PTGER2 (EP2), 149 nM; against EP2, 46 nM.
